Legend:
[1] = test system: NCI-H929; experiment: Cytostatic activity on human multiple myeloma cell line NCI-H929 (WST-1); type: cell-based; conditions: Homo sapiens, NCI-H929, 72 h, NCI-H929 cells, test compound 1 μmol/L, WST-1; read-out: cytostatic rate (%) H929 (1 μmol/L)
Procedure, shortened: (§1)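 Cytostatic rate is 100 minus % growth relative to DMSO-only wells (100%) and blank wells (0%), read by WST-1 absorbance at 450/690 nm after 2 h. Compound at 1 or 10 μmol/L final was applied for 72 h at 37 °C to cells seeded 24 h earlier.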

[2] = test system: KMS-11; experiment: Cytostatic activity on human multiple myeloma cell line KMS-11 (WST-1); type: cell-based; conditions: Homo sapiens, KMS-11, 72 h, KMS-11 cells, test compound 1 μmol/L, WST-1; read-out: cytostatic rate (%) KMS-11 (1 μmol/L)
Procedure, shortened: as §1

[3] = test system: AsPC-1; experiment: Cytostatic activity on human pancreatic cancer cell line AsPC-1 (WST-1); type: cell-based; conditions: Homo sapiens, ASPC1, 72 h, AsPC-1 cells, test compound 10 μmol/L, WST-1, read-out: cytostatic rate (%) AsPC-1 (10 μmol/L)
Description: (§2) The cytostatic rates of the test compound on the human pancreatic cancer cell line AsPC-1 and the human colon cancer cell line Colo205 were determined in the following manner.
(§3) For culturing AsPC-1, RPMI 1640 medium containing 20% fetal bovine serum, 1 mmol/L sodium pyruvate, 10 mmol/L HEPES, 4.5 g/L glucose and penicillin/streptomycin (1:1). The Colo205 cell was cultured using RPMI 1640 medium containing 10% fetal bovine serum, 1 mmol/L sodium pyruvate, 10 mmol/L HEPES, 4.5 g/L glucose and penicillin/streptomycin (1:1) was used. Each 80 μL of the AsPC-1 cell having a concentration of 5×10^4 cells/mL (or the Colo205 having a concentration of 5×10^4 cells/mL) was inoculated to wells of a TC MICROWELL 96F plate (Nalge Nunc International, Catalog No. 167008) and was cultured in a 5% carbon dioxide gas incubator at 37° C. for 24 hours. Each 20 μL of a solution of the test compound in DMSO which was prepared to make the final concentration to 1 μmol/L or 10 μmol/L, was added to each well. Each 20 μL of DMSO was added to the control well and the blank well to a final concentration of 0.1%. After adding the test compound, the cell was incubated in a 5% carbon dioxide gas incubator at 37° C. for 72 hours except for the blank well. After adding 20 μL of WST-1 reagent which was diluted to 50% by RPMI medium to each well, the cells were further incubated at 37° C. for 2 hours. Then, the absorbances at 450 nm (reference wavelength: 690 nm) were determined with a microplate spectrophotometer SPECTRA max 340PC. The cytostatic rate (%) was then determined in the similar manner to the above multiple myeloma cell lines.

[4] = test system: Colo205; experiment: Cytostatic activity on human colon cancer cell line Colo205 (WST-1); type: cell-based; conditions: Homo sapiens, COLO 205, 72 h, Colo205 cells, test compound 10 μmol/L, WST-1, read-out: cytostatic rate (%) Colo205 (10 μmol/L)
Description: as §2, §3

[5] = biological target: T1, IGF-1R (Homo sapiens, UniProt P08069); experiment: IGF-1R inhibitory activity (kinase reaction, time-resolved fluoroimmunoassay); type: biochemical; conditions: IGF-1R active recombinant enzyme, test compound 10 μmol/L
T1 construct: purchased Upstate Co. 14-465
T1 sequence (P08069 959-1367 limits assumed): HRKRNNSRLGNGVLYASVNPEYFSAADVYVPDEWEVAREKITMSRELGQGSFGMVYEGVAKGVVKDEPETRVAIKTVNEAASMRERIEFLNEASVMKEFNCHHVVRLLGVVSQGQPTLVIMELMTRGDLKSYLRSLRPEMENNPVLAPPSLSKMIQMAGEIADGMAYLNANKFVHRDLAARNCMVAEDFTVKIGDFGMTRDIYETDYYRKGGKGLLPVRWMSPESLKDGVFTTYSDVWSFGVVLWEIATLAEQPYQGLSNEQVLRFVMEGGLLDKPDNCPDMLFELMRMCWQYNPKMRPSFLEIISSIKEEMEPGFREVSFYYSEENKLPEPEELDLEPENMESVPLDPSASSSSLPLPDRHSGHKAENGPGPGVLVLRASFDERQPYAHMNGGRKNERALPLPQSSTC
Procedure, shortened: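 Compounds were tested at a single 10 μmol/L concentration. Each was incubated with recombinant IGF-1R (200 μg/L), 10 mmol/L ATP, MgCl2/MnCl2 and Na3VO4 (pH 7.5) on immobilized poly(Glu-Tyr) peptide for 30 min at 24° C. Eu-anti-phosphotyrosine time-resolved fluorescence (340/615 nm) gave relative activity against no-compound and no-enzyme wells, reported as % inhibition.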

inhibition at 10 µM [5]: 94.7%
Compound: Cc1ccsc1C(=O)Nc1cc(CN2CCN(CCOCCO)CC2)ccc1/C=C/c1n[nH]c2ccccc12 [Compound 318, (E)-N-{5-{4-[2-(2-hydroxyethoxy)ethyl]piperazin-1-ylmethyl}-2-[2-(1H-indazol-3-yl)vinyl]-phenyl}-3-methylthiophene-2-carboxamide]
inhibition at 1 µM [1]: 122% | inhibition at 1 µM [2]: 102% | inhibition at 10 µM [3]: 103% | inhibition at 10 µM [4]: 120%

— patent publication US7605272B2, “IGF-1R inhibitor” (Kyowa Hakko Kirin Co., Ltd., priority 2005, dated 2009)
